Measured values reported in patent US4016148A, “Peptide derivatives of phosphonic and phosphinic acids and intermediates therefor” (Hoffmann-La Roche Inc., priority 1975, dated 1977).
Residues, ends and D or L forms follow the SMILES beside them.

Columns and labels:
E. coli [1] = assay: Potentiation of antibiotics by the peptide derivative: MIC and fractional inhibitory concentration index against E. coli in Davis minimal medium; type: cell-based; conditions: for Fractional Inhibitory Concentration Index: antibiotic in combination with (1R)-1-(L-alanylamino)-ethylphosphonic acid; for Minimum Inhibitory Concentration, Antibiotic + peptide derivative: concentration of the antibiotic: in combination with (1R)-1-(L-alanylamino)-ethylphosphonic acid
Text: The peptide derivatives provided by this invention potentiate the activity of antibiotics (e.g. penicillin and cephalosporin antibiotics and D-cycloserine). Thus, for example the fractional inhibitory concentration indices of (1R)-1-(L-alanylamino)-ethylphosphonic acid in combination with a cephalosporin, with a penicillin antibiotic and with D-cycloserine against E. coli in Davis minimal medium are given in Table 1.

E. coli [2] = assay: Fractional inhibitory concentration indices of peptide derivatives in a 2:1 ratio with D-cycloserine against E. coli in Davis minimal medium; type: cell-based; conditions: peptide derivative in a 2:1 ratio with D-cycloserine
Text: Again, for example, the fractional inhibitory concentration indices of (1R)-1-(L-alanylamino)-ethylphosphonic acid (Derivative A), (1R)-1-(L-alanyl-L-alanylamino)-ethylphosphonic acid (Derivative B), (1R)-1-(L-alanyl-L-alanyl-L-alanylamino)-ethylphosphonic acid (Derivative C), (1R)-1-(L-alanyl-L-alanyl-L-alanyl-L-alanylamino)-ethylphosphonic acid (Derivative D), (1R)-1-(L-phenylalanylamino)-ethylphosphonic acid (Derivative E), (1R)-1-(L-valylamino)-ethylphosphonic acid (Derivative F) and (1R)-1-(L-leucylamino)-ethylphosphonic acid (Derivative G) in a 2:1 ratio with D-cycloserine against E. coli in Davis minimal medium are given in Table 2.

Compound | Minimum Inhibitory Concentration, Antibiotic alone (E. coli [1]) [µg/mL] | Fractional Inhibitory Concentration Index (E. coli [1]) | Minimum Inhibitory Concentration, Antibiotic + peptide derivative: concentration of the antibiotic (E. coli [1]) [µg/mL] | Fractional Inhibitory Concentration Index (E. coli [2]) | Fractional Inhibitory Concentration of D-cycloserine (E. coli [2]) | further results
CC1(C)S[C@@H]2[C@H](NC(=O)[C@H](N)c3ccc(O)cc3)C(=O)N2[C@H]1C(=O)O [Amoxycillin] | 4 | 0.3 | 1 | – | – | –
CC1=C(C(=O)O)N2C(=O)[C@@H](NC(=O)[C@H](N)C3=CCC=CC3)[C@H]2SC1 [Cephradine] | 16 | 0.5 | 4 | – | – | –
N[C@@H]1CONC1=O [D-Cycloserine] | 64 | 0.25 | 0.25 | – | – | –
C[C@H](N)C(=O)N[C@@H](C)P(=O)(O)O [Derivative A, (1R)-1-(L-alanylamino)-ethylphosphonic acid] | – | – | – | 0.3 | 0.06 | Minimum Inhibitory Concentration, Antibiotic + peptide derivative: concentration of the peptide derivative (E. coli [1]; in combination with Amoxycillin): 0.06 µg/mL; Minimum Inhibitory Concentration, Antibiotic + peptide derivative: concentration of the peptide derivative (E. coli [1]; in combination with Cephradine): 0.25 µg/mL; Minimum Inhibitory Concentration, Antibiotic + peptide derivative: concentration of the peptide derivative (E. coli [1]; in combination with D-Cycloserine): 0.25 µg/mL
C[C@H](N)C(=O)N[C@@H](C)C(=O)N[C@@H](C)P(=O)(O)O [Derivative B, (1R)-1-(L-alanyl-L-alanylamino)-ethylphosphonic acid] | – | – | – | 0.2 | 0.03 | –
C[C@H](N)C(=O)N[C@@H](C)C(=O)N[C@@H](C)C(=O)N[C@@H](C)P(=O)(O)O [Derivative C, (1R)-1-(L-alanyl-L-alanyl-L-alanylamino)-ethylphosphonic acid] | – | – | – | 0.1 | 0.05 | –
C[C@H](N)C(=O)N[C@@H](C)C(=O)N[C@@H](C)C(=O)N[C@@H](C)C(=O)N[C@@H](C)P(=O)(O)O [Derivative D, (1R)-1-(L-alanyl-L-alanyl-L-alanyl-L-alanylamino)-ethylphosphonic acid] (HELM PEPTIDE1{A.A.A.A.[C[C@H](N[*:1])P(=O)(O)O]}$$$$V2.0) | – | – | – | 0.2 | 0.10 | –
C[C@H](NC(=O)[C@@H](N)Cc1ccccc1)P(=O)(O)O [Derivative E, (1R)-1-(L-phenylalanylamino)-ethylphosphonic acid] | – | – | – | 0.48 | 0.13 | –
CC(C)[C@H](N)C(=O)N[C@@H](C)P(=O)(O)O [Derivative F, (1R)-1-(L-valylamino)-ethylphosphonic acid] | – | – | – | 0.60 | 0.13 | –
CC(C)C[C@H](N)C(=O)N[C@@H](C)P(=O)(O)O [Derivative G, (1R)-1-(L-leucylamino)-ethylphosphonic acid] | – | – | – | 0.27 | 0.12 | –
